Test results reported in patent publication US9044388B2, “Dry eye treatment” (Ocular Research of Boston, Inc., priority 2005, dated 2015).
Each block holds one molecule with its values, some of them ahead of it.

What was measured:
[1] = result in words; cited from earlier work
eye [2] = experiment: Subjective sensation / stinging of emulsions and their surfactants on the eye; format: in vivo, human; conditions: higher concentration as sole primary surfactant
Procedure: The subjective sensation realized with both formulations was evaluated as comfortable, and without any form of adverse sensation.

eye [3] = conditions: in vivo; cited from earlier work
ocular surface = experiment: Evaluation of comfort on the eye (sensation after one drop); format: in vivo, human; conditions: even in concentrations ≦0.10%
Procedure: The vehicle used for all formulations was Unisol 4, a buffered saline solution marketed by Alcon Laboratories, Fort Worth, Tex. Unisol 4 had previously been studied and found to be the most comfortable normal saline product for use on the ocular surface. It was therefore used as a vehicle for the test formulations, and was also used as a control. A drop of each of the 5 test formulations was placed on to the ocular surfaces of each subject, utilizing a 15 ml dropper container that delivered a drop of 40 μl to the ocular surface. […] The results obtained with 6 subjects, all of whom evaluated each of the test formulation on two different days are summarized in Table 3.

Molecule: CCCCCCCCCCCCCCCCCC(=O)OCC(O)CO (stereo not shown) [GMS, glycerol monostearate]
- solubility [1]: oil soluble

- effect of higher surfactant concentration on the eye (eye [2]): led to stinging on the eye
Molecule: CCCCCCCC/C=C\CCCCCCCC(=O)OCCOCC(OCCO)C1OCC(OCCO)C1OCCO (stereo not shown) [Polysorbate-80]

Molecule: polyoxyethylene (40) stearate [Myrj-52]
- ocular discomfort on increasing the concentration (eye [3]): significant stinging

- sting when applied to the eye and ocular surfaces (ocular surface): sting
Molecule: sorbitan monolaurate [Span 20]
